Assay results reported in EP1219631A1, “ANTIANDROGEN AGENTS” (CHUGAI SEIYAKU KABUSHIKI KAISHA, priority 1999, dated 2001).
pIC50: −log10 of the molar value. Read-outs that look alike come from different tables or passages of the source.

Biological target: T1, human androgen receptor (Homo sapiens, UniProt P10275)
T1 construct: expressed in transfected cells; host or cells: HeLa cells
T1 sequence (P10275 1-920): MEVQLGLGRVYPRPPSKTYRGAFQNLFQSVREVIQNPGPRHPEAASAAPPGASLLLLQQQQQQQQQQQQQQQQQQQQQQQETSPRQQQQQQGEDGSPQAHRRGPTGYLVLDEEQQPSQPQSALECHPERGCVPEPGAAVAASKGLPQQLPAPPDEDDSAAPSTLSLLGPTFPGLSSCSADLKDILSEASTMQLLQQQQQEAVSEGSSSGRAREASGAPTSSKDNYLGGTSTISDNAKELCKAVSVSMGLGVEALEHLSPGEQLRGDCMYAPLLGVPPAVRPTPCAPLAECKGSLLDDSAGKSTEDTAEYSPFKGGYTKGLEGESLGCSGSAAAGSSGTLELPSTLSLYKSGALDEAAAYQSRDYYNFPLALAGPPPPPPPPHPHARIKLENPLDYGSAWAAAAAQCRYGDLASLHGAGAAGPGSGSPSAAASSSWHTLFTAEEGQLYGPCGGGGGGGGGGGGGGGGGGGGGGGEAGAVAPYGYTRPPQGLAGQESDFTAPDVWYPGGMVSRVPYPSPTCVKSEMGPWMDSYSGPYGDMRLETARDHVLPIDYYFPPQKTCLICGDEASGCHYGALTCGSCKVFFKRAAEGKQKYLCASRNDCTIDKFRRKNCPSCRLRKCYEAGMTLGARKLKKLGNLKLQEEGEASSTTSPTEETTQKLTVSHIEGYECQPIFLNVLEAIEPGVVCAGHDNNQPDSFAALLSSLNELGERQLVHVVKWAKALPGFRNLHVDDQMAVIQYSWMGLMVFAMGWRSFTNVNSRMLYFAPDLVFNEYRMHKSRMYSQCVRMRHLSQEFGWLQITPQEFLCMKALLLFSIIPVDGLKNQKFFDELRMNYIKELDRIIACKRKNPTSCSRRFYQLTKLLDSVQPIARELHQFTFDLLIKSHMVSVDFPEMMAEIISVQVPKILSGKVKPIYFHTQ
Assay: Androgen receptor reporter gene assay, antagonist action against DHT (MMTV-Luc, pSG5/hAR and Renilla Luc vectors transfected into HeLa cells, dual-luciferase)
Assay type: cell-based
Description: The expression "acting as antagonist" means that in the following androgen receptor gene assay, the transcriptional activity value of 0.1 nmol/L of dihydrotestosterone (DHT) is inhibited to 0 - 50% at any concentration of 0.1 nmol/L - 10 µmol/L:
Twenty-four hours before transfection, 1.0 x 10^5 HeLa cells are cultured in phenol red free DMEM/5% DCC-FBS on 12-well microplates. Five hundred nanograms/well of MMTV-Luc vector, 100 ng/well of pSG5/hAR and 5 ng/well of Renilla Luc vector are transfected into the HeLa cells. The transfection is performed in a liquid culture of the phenol red free DMEM using […] of lipofectoamine. Nine hours after the transfection, the liquid culture is replaced by phenol red free DMEM/3% DCC-FBS containing 0.1 nmol/L of DHT and […] of a compound of the invention which is represented by the general formula (I) or the substance of the invention which acts as antagonist against but not as agonist for the androgen receptor. The transcriptional activity value is measured 48 hours after the replacement of the liquid culture. Transcriptional activity is measured with a dual-luciferase reporter assay system. The transcriptional activity value is defined as the value for firefly luciferase divided by the value for sea pansy luciferase. […] 270, pp. 19998-20003, 1995.
Twenty-four hours before transfection, 1.0 x 10^5 HeLa cells were cultured in phenol red free DMEM/5% DCC-FBS on 12-well microplates. Five hundred nanograms/well of MMTV-Luc vector, 100 ng/well of pSG5/hAR and 5 ng/well of Renilla Luc vector were transfected into the HeLa cells. The transfection was performed in a liquid culture of the phenol red free DMEM using […] of lipofectoamine. […] The transcriptional activity value was measured 48 hours after the replacement of the liquid culture. Transcriptional activity was measured with a dual-luciferase reporter assay system. The transcriptional activity value was calculated as the value for firefly luciferase divided by the value for sea pansy luciferase.
The compound was added at concentrations of 1, 10, 100, 1000 and 10000 nmol/L and at each of these concentrations, measurement was done in the presence of DHT (0.1 nmol/L). Antagonist activity = Transcriptional activity when the compound was added/Transcriptional activity when the compound was not added x 100 [formula]

[1] = concentration giving 50% decrease in the transcriptional activity of DHT 0.1 nmol/L, tested at 1, 10, 100, 1000 and 10000 nmol/L, read-out: IC50 value

| Structure (SMILES) | pIC50 [1] | pIC50 |
| --- | --- | --- |
| C[C@]12CCC(=O)C[C@@H]1C[C@@H](CCCCCCCC(=O)NCCO)[C@@H]1[C@@H]2CC[C@]2(C)[C@@H](O)CC[C@@H]12 (stereo in doubt) [Example 64, 17β-hydroxy-7α-[7-{N-(2-hydroxyethyl]-aminocarbonyl}heptyl]-5α-androstan-3-one] | 6.09 | – |
| CCCCN(C)C(=O)CCCCCCCCCC[C@@H]1CC2=CC(=O)CC[C@]2(C)[C@H]2CC[C@]3(C)[C@@H](O)CC[C@H]3[C@H]12 [EM-101, reference compound] | 5.58 | – |
| CN(C)C(=O)CCCCCCC[C@@H]1C[C@H]2CC(=O)CC[C@]2(C)[C@H]2CC[C@]3(C)[C@@H](O)CC[C@H]3[C@H]12 [Example 9, 17β-hydroxy-7α-{7-(N,N-dimethylaminocarbonyl)-heptyl}-5α-androstan-3-one] | – | 6.35 |
| CCNC(=O)CCCCCCC[C@@H]1C[C@H]2CC(=O)CC[C@]2(C)[C@H]2CC[C@]3(C)[C@@H](O)CC[C@H]3[C@H]12 [Example 10] | 6.03 | – |
| CCCCN(C)C(=O)CCCCCCCC1CC2CC(=O)CCC2(C)C2CCC3(C)C(O)CCC3C12 (stereo not drawn) [Example 18] | – | 6.47 |
| CCN(CC)C(=O)CCCCCCCC1CC2CC(=O)CCC2(C)C2CCC3(C)C(O)CCC3C12 (stereo not drawn) [Example 19] | – | 6.53 |
| CC12CCC3C(C(CCCCCCCC(=O)NCc4ccco4)CC4CC(=O)CCC43C)C1CCC2O (stereo not drawn) [Example 23] | 5.89 | – |
| CNC(=O)CCCCCCCC1CC2CC(=O)CCC2(C)C2CCC3(C)C(O)CCC3C12 (stereo not drawn) [Example 24] | – | 6.32 |
| CCN(C)C(=O)CCCCCCCC1CC2CC(=O)CCC2(C)C2CCC3(C)C(O)CCC3C12 (stereo not drawn) [Example 25] | 6.38 | – |
| CCCN(C)C(=O)CCCCCCCC1CC2CC(=O)CCC2(C)C2CCC3(C)C(O)CCC3C12 (stereo not drawn) [Example 26] | 5.95 | – |
| CC(C)N(C)C(=O)CCCCCCCC1CC2CC(=O)CCC2(C)C2CCC3(C)C(O)CCC3C12 (stereo not drawn) [Example 27] | – | 6.38 |
| CN(C)C(=O)CCCCCCCCCC1CC2CC(=O)CCC2(C)C2CCC3(C)C(O)CCC3C12 (stereo not drawn) [Example 42] | 6.47 | – |
| CCN(CC)C(=O)CCCCCCCCCC1CC2CC(=O)CCC2(C)C2CCC3(C)C(O)CCC3C12 (stereo not drawn) [Example 43] | 5.89 | – |
| CCCCN(C)C(=O)CCCCCCCCCC1CC2CC(=O)CCC2(C)C2CCC3(C)C(O)CCC3C12 (stereo not drawn) [Example 46] | 5.76 | – |
| CCCN(C)C(=O)CCCCCCCCCC1CC2CC(=O)CCC2(C)C2CCC3(C)C(O)CCC3C12 (stereo not drawn) [Example 50] | 6.13 | – |
| CC12CCC3C(C(CCCCCCCCCC(=O)N4CCOCC4)CC4CC(=O)CCC43C)C1CCC2O (stereo not drawn) [Example 51] | 6.32 | – |
| CCCNC(=O)CCCCCCCC1CC2CC(=O)CCC2(C)C2CCC3(C)C(O)CCC3C12 (stereo not drawn) [Example 65] | 5.74 | – |
| CC12CCC3C(C(CCCCCCCC(=O)NCc4ccccc4)CC4CC(=O)CCC43C)C1CCC2O (stereo not drawn) [Example 73] | 5.96 | – |
| CCN(CC)C(=O)CCCCCCCCCC1CC2(C)C(O)CCC2C2CCC3CC(=O)CCC3(C)C12 (stereo not drawn) [Example 96] | 5.80 | – |
| CC12CCC3C(C(CCCc4cccc(OCCCCC(=O)N5CCCC5)c4)CC4CC(=O)CCC43C)C1CCC2O (stereo not drawn) [Example 167] | 6.32 | – |
| CN(C)C(=O)CCCOc1cccc(CCCC2CC3CC(=O)CCC3(C)C3CCC4(C)C(O)CCC4C23)c1 (stereo not drawn) [Example 168] | 6.27 | – |
